Consider one molecule from patent US10232043B2, “Photoactivated molecules for light-induced modulation of the activity of electrically excitable cells and methods of using the same” (UNIVERSITY OF SOUTHERN CALIFORNIA, priority 2015, dated 2019).

Entries after “also recorded” stand apart in the source; their conditions may differ.

For data set [1] the following is noted: aqueous solution; cited from earlier work.
Data set [2] relates to leech ganglion neurons. Kind of data set: Leech ganglion neurons, light-induced action potential firing. The format is cell-based, Hirudo verbana. Particulars: ex vivo leech ganglia. On the procedure: Adult leeches Hirudo verbana will be obtained from Niagara Medical Leeches, Inc. (Westbury, N.Y., USA). Groups (20-30) of animals will be kept in glass aquaria with artificial pond water (36 mg/L Instant Ocean salts; Aquarium Systems, Mentor Ohio), in a temperature-controlled room at 16° C. and a 12:12 h light:dark cycle. At the time of experiments, leeches will weigh 1-3 g. Before dissection, the leech will be anesthetized in ice-cold leech saline. Leech saline has the following composition (in mM per liter): NaCl—115, KCl—4, CaCl2—1.8, MgCl2—2, HEPES—10, D-Glucose—5 (Sigma-Aldrich, USA). Individual ganglia will be dissected from the mid-body segments M6-M12, and pinned down in Sylgard-filled dissection box. Medial dorsal longitudinal incision will be made and the blood will be flushed away. Connective tissue and the blood vessel overlaying the ganglion chain will be incised. Dissected ganglia will be transferred to a Petri dish, pinned down in paraffin with six stainless steel pins (dorsal side up). PVNs will be microinjected into the extracellular space of the ganglion with a glass micropipette. Intracellular recording will be performed by penetrating the Retzius neurons with sharp glass electrodes (20-30 MOhm) filled with 3M potassium acetate. […] Neuronal firing will be recorded before and after the injections.

Data set [3] concerns HEK293T cells. Kind of data set: Effect of PF6:Cl counter ion ratio of Rubpy-C17 on HEK293T cells. It counts as cell-based. On the procedure: In some embodiments, the 20 mg of Rubpy-C17 is stored in −20° C. with desiccant in the dark. […] 253 μl of DMSO is then added into the original bottle containing Rubpy-C17 to make 100 mM stock solution. In some embodiments, the stock solution is aliquot and stored in −20° C. with desiccant in the dark.
In some examples, on the day before or on, the same day of the experiment, the following 2.5 mM external solution is prepared using the following steps. The external solution is warmed up to 37° C. For […] of the external solution, 0.176 grams of absorbic acid was added. Another 240 μL 5M NaOH was added to adjust the pH to between about 7.2-7.4. The absorbic solution can then be filtered through a 0.2 μm filter. The solution is then stored in the dark in 4° C. In some examples, the solution must be used within one week.
The 100 mM of Rubpy solution is first thawed from −20° C. 100 mM Rubpy is then diluted to 10 mM Rubpy: 2 μL 100 mM Rubpy+18 μL DMSO. In some examples, this is vortexted to mix and then centrifuged down with a small bench-top. The culture, medium is aspirated and the cells are rinsed with external solution several times. The external solution can then be aspirated. In some examples, enough of the external solution is left on the cells to prevent it from drying. 500 μL of external solution with 2.5 mM of ascorbic acid can then be added.
In some examples, 1 μL of 10 mM of Rubpy to […] of external solution with 2.5 mM ascorbic acid and mixed well. This should produce a final concentration of 10 μM of Rubpy with 0.1% DMSO. This mixed solution is then added to the above referenced cells and incubated for 10 minutes.
The solution can then be aspirated from the plate and rinsed with regular external solution several times. 2 mL of external solution is added to 2.5 mM ascorbic acid for recording. For each plate, a baseline control is taken by recording the first cell before performing any light-stimulating protocol. The light-stimulus can include 10-40 s in duration and bandpassed at 455-495 nm (blue light).
As discussed above, the mixture a 10 μM of RubpyC17 solution was placed in 10 HEK293T cells.

For data set [4], the system named is mouse chromaffin cells. Nature of the data set: Carbon-fiber amperometry, light-triggered secretion. The format is cell-based. On the procedure:
Carbon fiber electrodes were prepared using established methodology and coupled to an EPC10 amplifier. A +800 mV constant voltage was applied to the electrode relative to the Ag/AgCl bath electrode. The amperometry recordings were sampled at 4 kHz using Pulsemaster (HEKA). Extracellular composition consisted of 120 mM NaCl, 20 mM KCl, 10 mM HEPES, 1 mM MgCl2, 2 mM CaCl2, 10 mM glucose, pH adjusted to 7.2-7.4, and osmolarity adjusted to 290-300. Light stimulation in the blue spectrum originated from a xenon lamp source through a 470/40 nm bandpass excitation filter. The duration of illumination varied and is indicated by bars on figures.
Action potential firing triggers secretion of norepinephrine and epinephrine from adrenal chromaffin cells, which can be readily detected by the technique of carbon-fiber amperometry, thus serving as a surrogate to detect action potential firing. […] Out of 18 RubpyC17-loaded cells tested, 15 cells (83%) experienced increased secretion by at least 100-fold during light illumination. Unlike the changes in light-induced depolarization, light-induced changes in secretion appeared to be more transient One possible explanation for this is that at any moment in time, there are only a small number of release-competent vesicles—the so-called readily releasable pool of vesicles and maintained stimulation causes rapid depletion of the readily releasable pool of vesicles in the initial phase of stimulation.

`CCCCCCCCCCCCCCCCCc1ccnc(-c2cc(C)ccn2)c1.F[P-](F)(F)(F)(F)F.F[P-](F)(F)(F)(F)F.[Ru+2].c1ccc(-c2ccccn2)nc1.c1ccc(-c2ccccn2)nc1` [RubpyC17, [Ru(bpy)2(bpy-C17)](PF6)2]: in data set [1], the “electron transfer rate ket to oxidant ferricyanide” value is around 6.5e+09 M⁻¹ s⁻¹. Further, in data set [2], the “light-induced action potential firing” value is “respond to illumination by firing action potentials; also recorded: light-induced increases in action potential firing”. Moreover, the fluorescence pattern entry in data set [3] (only PF6 counter ions) was “punctuate fluorescence”. The Cell Death result in data set [3] (only counter ion is chloride) is “cell death is observed”. Further, the “amperometric current spikes (vesicular secretion) under light” value in data set [4] (2 μM RubpyC17, 488 nm) is “exhibited numerous amperometric current spikes”. For the same molecule, the “cells with increased secretion during light illumination” value in data set [4] (15 of 18 RubpyC17-loaded cells) is on record as 83%. For the same molecule, the “increase of secretion during light illumination” value in data set [4] (responding cells) is listed as “at least 100 fold”.
